Measured values: patent publication US20090029984A1 (priority 2005, published 2009)
“And” between values parts separate entries of the source, which are not always exact repeats. Equal entries are not always repeated. “Also recorded” adds a separate entry of the source. Where two headings read alike, the source gives them in different places.

Tests used:
[1] = rat, cited from earlier work
[2] = tested on: mice; details: mouse, in vivo
[3] = target: T1, human CB2 receptor (Homo sapiens, UniProt P34972); experiment: Efficacy and potency at the human CB2 receptor expressed in CHO cells (cAMP, forskolin); assay type: cell-based
T1 construct: expressed in transfected cells; host or cells: CHO cells
T1 sequence (P34972 whole entry): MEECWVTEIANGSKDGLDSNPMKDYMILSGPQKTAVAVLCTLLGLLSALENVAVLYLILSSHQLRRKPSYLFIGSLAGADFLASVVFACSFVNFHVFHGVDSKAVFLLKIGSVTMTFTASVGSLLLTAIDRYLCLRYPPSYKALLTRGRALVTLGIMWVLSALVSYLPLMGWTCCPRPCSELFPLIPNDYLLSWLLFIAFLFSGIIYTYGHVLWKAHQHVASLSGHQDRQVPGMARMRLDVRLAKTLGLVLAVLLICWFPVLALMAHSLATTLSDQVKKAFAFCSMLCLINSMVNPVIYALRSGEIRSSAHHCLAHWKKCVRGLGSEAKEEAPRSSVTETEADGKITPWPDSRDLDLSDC

C=C(C)[C@@H]1CCC(C)=C[C@H]1c1c(O)cc(CCCCC)cc1O [cannabidiol]
brain-to-plasma ratio ([1]; Alozie et al 1980): 2.61

COc1ccc2c3c1O[C@H]1[C@@H](O)C=C[C@H]4[C@@H](C2)N(C)CC[C@@]341 [Codeine, reference compound]
% of MPE ([2]; iv): 44.2% | Tail flick latency (s) + s.e.m. at Tmax ([2]; iv): 6.95 ± 0.84 s

CN1CC[C@]23c4c5ccc(O)c4O[C@H]2[C@@H](O)C=C[C@H]3[C@H]1C5 [morphine, reference compound]
% of MPE ([2]; iv): 47.7% and 42.9%

CCCCCc1cc(O)c2c(c1)OC(C)(C)[C@@H]1CCC(C)=C[C@@H]21 [Δ^9THC, Δ^9-tetrahydrocannabinol]
brain-to-plasma ratio ([1]; Alozie et al 1980): 0.96 | brain-to-plasma ratio ([1]; Dyson et al 2005): 1.0

Cl.O=C(NCCO)[C@H]1CCCN(Cc2nc(-c3cn(CC4CCS(=O)(=O)CC4)c4c(Cl)cccc34)ns2)C1 [Compound 2, (S)-7-Chloro-3-[(5-{[3-N-(2-hydroxyethyl)carboxamido]piperidin-1-yl}methyl)([1,2,4]-thiadiazol-3-yl)]-1-(1,1-dioxo-hexahydrothiopyran-4-yl)methyl-1H-indole, hydrochloride salt]
combination versus opioid on its own (in words) [2]: significantly different | time of maximum effect post-injection ([2]; iv): 20 min | effect of co-administration on tail flick latency (in words) ([2]; iv, hydrochloride salt): increased tail flick latency in a dose-dependent manner; also recorded: dose-dependent potentiation

CCOC(=O)c1c(C)cc2nc(COC(=O)NCCO)n(-c3ccccc3S(=O)(=O)NC)c(=O)c2c1C [Compound 1a, 2-(2-Hydroxy-ethylcarbamoyloxymethyl)-5,7-dimethyl-3-(2-methylsulfamoylphenyl)-4-oxo-3,4-dihydro-quinazoline-6-carboxylic acid ethyl ester]
EC50 [3]: 3.5 nM | Emax ([3]; CHO, relative to maximal response (100%) obtained with CP 55940, human CB2): 107% | effect on tail flick latency (in words) [2]: had no effect on tail flick latency | effect on tail flick latency (in words) ([2]; iv): had no effect on tail flick latency; also recorded: did not increase the tail flick latency | time of maximum effect post-injection ([2]; iv): 40 min

Cc1c(C(=O)c2cccc3ccccc23)c2cccc3c2n1[C@H](CN1CCOCC1)CO3 [WIN55, 212-2]
brain-to-plasma ratio ([1]; Dyson et al 2005): 1.3-1.9

CCCCCc1cc(O)c2c(c1)OC(C)(C)c1ccc(C)cc1-2 [cannabinol]
brain-to-plasma ratio ([1]; Alozie et al 1980): 0.88
